Experimental data from patent EP4656642A1, “ESTROGEN RECEPTOR PROTEOLYSIS TARGETING CHIMERA COMPOUND AND USE THEREOF” (GAN & LEE PHARM CO., LTD, priority 2023, dated 2024).

Legend:
Assay type in all cases: cell-based
T-47D cells = test: Inhibition of cell proliferation in T-47D cells (CCK-8, 6 days); conditions: 6 days of treatment
Description: Test Example 2: Inhibitory effect of the PROTAC compounds provided in the present disclosure on cell proliferation in T-47D cells (source ATCC)
The complete medium required for T-47D cells was 1640 ( ATCC, Product number: A10491-01) basal medium containing 10% fetal bovine serum. T-47D cells were inoculated in 96-well plates at a density of 3,000 cells/well, and different concentrations of the PROTAC compounds 1-55 provided in the examples of the present disclosure and a positive control sample ARV-471 (source: Innochem) were prepared to treat cells, and the cells were treated at 37°C in a cell culture incubator with 5% CO2 for 6 days. Cell viability was detected using a CCK-8 kit (Beyotime, Product number: C0040) according to the manufacturer's instructions. […] Table 2 IC50 values for inhibition of the proliferation of T-47D cells by the PROTAC compounds provided by the present disclosure and the positive control sample

MCF-7 cells = test: Inhibition of cell proliferation of MCF-7 cells (CCK-8, 9 days)
Outline: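 MCF-7 cells seeded at 800 cells/well in DMEM with 10% FBS, exposed to a range of compound concentrations for 9 days at 37°C, 5% CO2. Viability read by CCK-8; IC50 derived for proliferation inhibition.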

ERα [1] = target: T1, ERα (Homo sapiens, UniProt P03372); test: Degradation of ERα in MCF-7 cells (immunoblotting, 4 h)
T1 sequence (P03372 1-595): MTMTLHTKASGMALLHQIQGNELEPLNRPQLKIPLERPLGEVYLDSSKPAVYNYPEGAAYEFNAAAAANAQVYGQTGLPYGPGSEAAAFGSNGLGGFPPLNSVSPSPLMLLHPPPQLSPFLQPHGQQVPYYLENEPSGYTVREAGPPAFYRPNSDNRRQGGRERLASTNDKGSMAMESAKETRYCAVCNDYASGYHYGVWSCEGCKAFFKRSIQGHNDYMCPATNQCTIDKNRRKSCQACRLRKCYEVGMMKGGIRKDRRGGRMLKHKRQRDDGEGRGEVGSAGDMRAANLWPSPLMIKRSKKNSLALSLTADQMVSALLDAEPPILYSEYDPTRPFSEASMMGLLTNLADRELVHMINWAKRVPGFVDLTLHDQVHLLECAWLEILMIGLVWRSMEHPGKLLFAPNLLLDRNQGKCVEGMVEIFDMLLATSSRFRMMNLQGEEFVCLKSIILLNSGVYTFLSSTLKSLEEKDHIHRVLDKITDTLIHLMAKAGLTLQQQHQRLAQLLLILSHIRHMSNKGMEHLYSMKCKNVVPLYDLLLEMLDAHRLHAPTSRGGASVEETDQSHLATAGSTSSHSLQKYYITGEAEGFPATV
Outline: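 MCF-7 cells treated 4 h at 37°C with compounds at 0.15-1000nM final. ERα in lysates measured by immunoblot, with band grayscale normalized to an internal reference protein. Degradation rate calculated against DMSO-treated control.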

ERα [2] = target: T1, ERα; test: Degradation of ERα in T-47D cells (immunoblotting, 4 h); parameters: host or cells: T-47D
Outline: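 T-47D cells were treated with compound (final 0.15-1000 nM, DMSO) for 4 h at 37°C, 5% CO2. Cells were lysed in RIPA buffer with protease inhibitor, and ERα protein in the cleared lysate was measured by immunoblotting.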

[3] = treated for 9 days, CCK-8 kit (Table 6)

SMILES | IC50 (T-47D cells; Table 2) | IC50 (MCF-7 cells; 9 days of treatment, CCK-8, Table 5) | Degradation rate (%) of ERα in MCF-7 cells (ERα [1]; 1nM compound) | Degradation rate (%) of ERα in MCF-7 cells (ERα [1]; 10nM compound) | Degradation rate (%) of ERα in T-47D cells (ERα [2]; 1nM compound) | Degradation rate (%) of ERα in T-47D cells (ERα [2]; 10nM compound) | IC50 (T-47D cells; Table 3) | IC50 (MCF-7 cells; [3])
O=C1CCC(N2Cc3cc4c(cc3C2=O)CCC2(CN(C3CCC5(CC3)CCN(c3ccc([C@@H]6c7ccc(O)cc7CC[C@@H]6c6ccccc6)cc3)CC5)C2)O4)C(=O)N1 (stereo partly drawn) [A33] | 9.2 nM | 30 nM | -7% | 26% | 12% | 56% | – | –
O=C1CCC(N2C(=O)c3cc4c(cc3C2=O)C2(CCN(C3CC5(CCN(c6ccc([C@@H]7c8ccc(O)cc8CC[C@@H]7c7ccccc7)cc6)CC5)C3)CC2)CO4)C(=O)N1 (stereo partly drawn) [A34] | – | – | 4% | 13% | 5% | 28% | 68 nM | 174 nM
O=C1CCC(N2C(=O)c3cc4c(cc3C2=O)C2(CCN(CC3CCC5(CC3)CCN(c3ccc([C@@H]6c7ccc(O)cc7CC[C@@H]6c6ccccc6)cc3)CC5)CC2)CO4)C(=O)N1 (stereo partly drawn) [A36] | – | – | 11% | -14% | 2% | -23% | 21 nM | 270 nM
O=C1CCC(N2Cc3cc4c(cc3C2=O)OC2(CC4)CN(CC3CCC4(CC3)CCN(c3ccc([C@@H]5c6ccc(O)cc6CC[C@@H]5c5ccccc5)cc3)CC4)C2)C(=O)N1 (stereo partly drawn) [A37] | – | – | -12% | 8% | 15% | 35% | 7 nM | 37 nM
O=C1CCC(N2Cc3cc4c(cc3C2=O)OCC2(CCN(CC3CCC5(CC3)CCN(c3ccc([C@@H]6c7ccc(O)cc7CC[C@@H]6c6ccccc6)cc3)CC5)CC2)O4)C(=O)N1 (stereo partly drawn) [A39] | – | – | -16% | -27% | 11% | 6% | 41 nM | 30 nM
O=C1CCC(N2Cc3cc4c(cc3C2=O)OC2(CC4)CCN(CC3CCC4(CC3)CCN(c3ccc([C@@H]5c6ccc(O)cc6CC[C@@H]5c5ccccc5)cc3)CC4)CC2)C(=O)N1 (stereo partly drawn) [A40] | – | – | 15% | 35% | 6% | 25% | 13 nM | 76 nM
O=C1CCC(N2C(=O)c3cc4c(cc3C2=O)OC2(CC4)CN(CC3CCC4(CC3)CCN(c3ccc([C@@H]5c6ccc(O)cc6CC[C@@H]5c5ccccc5)cc3)CC4)C2)C(=O)N1 (stereo partly drawn) [A41] | – | – | -9% | -18% | 8% | 17% | 23 nM | 33 nM
O=C1CCC(N2C(=O)c3cc4c(cc3C2=O)OCC2(CCN(CC3CCC5(CC3)CCN(c3ccc([C@@H]6c7ccc(O)cc7CC[C@@H]6c6ccccc6)cc3)CC5)CC2)C4)C(=O)N1 (stereo partly drawn) [A42] | – | – | -49% | -36% | 41% | 30% | 60 nM | 38 nM
O=C1CCC(N2C(=O)c3cc4c(cc3C2=O)OC2(CC4)CCN(CC3CCC4(CC3)CCN(c3ccc([C@@H]5c6ccc(O)cc6CC[C@@H]5c5ccccc5)cc3)CC4)CC2)C(=O)N1 (stereo partly drawn) [A43] | – | – | -2% | -8% | 7% | 26% | 41 nM | 62 nM
O=C1CCC(N2Cc3ccc4c(c3C2=O)OC2(CC4)CCN(C3CC4(CCN(c5ccc([C@@H]6c7ccc(O)cc7CC[C@@H]6c6ccccc6)cc5)CC4)C3)CC2)C(=O)N1 (stereo partly drawn) [A45] | – | – | -3% | -15% | -6% | -28% | 79 nM | 160 nM
O=C1CCC(N2Cc3cc4c(cc3C2=O)CCC2(CN(C(=O)C3CCC5(CC3)CN(c3ccc([C@@H]6c7ccc(O)cc7CC[C@@H]6c6ccccc6)cc3)C5)C2)O4)C(=O)N1 (stereo partly drawn) [A46] | – | – | -22% | -26% | 7% | 33% | 10.6 nM | 1250 nM
O=C1CCC(N2Cc3cc4c(cc3C2=O)OC2(CC4)CN(C(=O)C3CCC4(CC3)CN(c3ccc([C@@H]5c6ccc(O)cc6CC[C@@H]5c5ccccc5)cc3)C4)C2)C(=O)N1 (stereo partly drawn) [A47] | – | – | 9% | 14% | -10% | 37% | 11.7 nM | 871 nM
O=C1CCC(N2Cc3cc4c(cc3C2=O)CCC2(CN(C(=O)C3CC5(CCN(c6ccc([C@@H]7c8ccc(O)cc8CC[C@@H]7c7ccccc7)cc6)CC5)C3)C2)O4)C(=O)N1 (stereo partly drawn) [A48] | – | – | 4% | 11% | -37% | 23% | 12.3 nM | 7440 nM
O=C1CCC(N2Cc3cc4c(cc3C2=O)OC2(CC4)CN(C(=O)C3CC4(CCN(c5ccc([C@@H]6c7ccc(O)cc7CC[C@@H]6c6ccccc6)cc5)CC4)C3)C2)C(=O)N1 (stereo partly drawn) [A49] | – | – | 9% | 37% | 17% | 48% | 9.63 nM | 11100 nM
O=C1CCC(N2Cc3cc4c(cc3C2=O)CCC2(CN(C(=O)C3CCN(c5ccc([C@@H]6c7ccc(O)cc7CC[C@@H]6c6ccccc6)cc5)CC3)C2)O4)C(=O)N1 (stereo partly drawn) [A50] | – | – | 11% | 27% | 24% | 53% | 4.16 nM | 4080 nM
O=C1CCC(N2Cc3cc4c(cc3C2=O)OC2(CC4)CN(C(=O)C3CCN(c4ccc([C@@H]5c6ccc(O)cc6CC[C@@H]5c5ccccc5)cc4)CC3)C2)C(=O)N1 (stereo partly drawn) [A51] | – | – | 5% | 15% | -10% | 3% | 12.2 nM | 2920 nM
O=C1CCC(N2Cc3c(ccc4c3OCC43CCN(C(=O)C4CCN(c5ccc([C@@H]6c7ccc(O)cc7CC[C@@H]6c6ccccc6)cc5)CC4)CC3)C2=O)C(=O)N1 (stereo partly drawn) [A52] | – | – | -22% | -33% | 3% | 2% | 10.9 nM | 5680 nM
O=C1CCC(N2Cc3cc4c(cc3C2=O)CCC2(CN(C3CCN(C5CCN(c6ccc([C@@H]7c8ccc(O)cc8CC[C@@H]7c7ccccc7)cc6)CC5)CC3)C2)O4)C(=O)N1 (stereo partly drawn) [A53] | – | – | 10% | 45% | 37% | 66% | 3.87 nM | < 0.256 nM
O=C1CCC(N2Cc3c(ccc4c3OCC43CCN(C4CCN(C5CCN(c6ccc([C@@H]7c8ccc(O)cc8CC[C@@H]7c7ccccc7)cc6)CC5)CC4)CC3)C2=O)C(=O)N1 (stereo partly drawn) [A54] | – | – | 40% | 65% | 15% | 62% | 6.16 nM | < 0.256 nM
